Source: patent US20230085307A1, “PYRIDAZINONE COMPOUND AND HERBICIDE” (NISSAN CHEMICAL CORPORATION, priority 2019, published 2023)

What was measured:
[1] = system: wild oat; experiment: Test Example 4: herbicidal effect by soil treatment (Table 19, symbol I); assay type: in vivo, wild oat (Avena fatua); details: amount of applied herbicide 320 g/ha
In short: (§1)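 Scoring uses the grading scale of an earlier test, three weeks post-application. Treatment consists of spraying a diluted emulsion formulation across the surface of sterilized diluvial soil in which seeds are buried near 1.5 cm deep; boxes are kept in a greenhouse between 25° C. and 30° C.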

[2] = system: persian speedwell; experiment: Test Example 5: herbicidal effect by foliage application, plastic box (Table 20, symbol R); assay type: in vivo, Persian speedwell (Veronica persica); details: foliage application
In short: (§2)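 Post-emergence foliar test in sterilized diluvial soil. Compound applied as water-diluted emulsion at a predetermined rate to 14-day-old plants; evaluation at three weeks.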

[3] = system: green foxtail; experiment: Test Example 4: herbicidal effect by soil treatment (Table 19, symbol G); assay type: in vivo, green foxtail (Setaria viridis); details: amount of applied herbicide 320 g/ha
In short: as §1

[4] = system: blackgrass; experiment: Test Example 4: herbicidal effect by soil treatment (Table 19, symbol J); assay type: in vivo, blackgrass (Alopecurus myosuroides); details: amount of applied herbicide 320 g/ha
In short: as §1

[5] = system: persian speedwell; experiment: Test Example 4: herbicidal effect by soil treatment (Table 19, symbol R); assay type: in vivo, Persian speedwell (Veronica persica); details: amount of applied herbicide 320 g/ha
In short: as §1

[6] = system: blackgrass; experiment: Test Example 5: herbicidal effect by foliage application, plastic box (Table 20, symbol J); assay type: in vivo, blackgrass (Alopecurus myosuroides); details: foliage application
In short: as §2

[7] = system: late watergrass; experiment: Test Example 1: herbicidal activity, application before weed generation under submerged conditions (Table 16, symbol A); assay type: in vivo, late watergrass (Echinochloa oryzicola)
In short: (§3)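 Emulsion formulation, water-diluted to set dose, was put onto the flooded surface (4 cm depth, alluvial soil) the same day weeds were sown and 2.5-leaf rice transplanted. After 3 weeks at 25-30 °C under glass, each species was rated 0 (≤5% kill) to 5 (≥90% kill).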

[8] = system: oval-leafed pondweed; experiment: Test Example 1: herbicidal activity, application before weed generation under submerged conditions (Table 16, symbol C); assay type: in vivo, oval-leafed pondweed (Monochoria vaginalis)
In short: as §3

[9] = system: lambsquarters; experiment: Test Example 4: herbicidal effect by soil treatment (Table 19, symbol O); assay type: in vivo, lambsquarters (Chenopodium album); details: amount of applied herbicide 320 g/ha
In short: as §1

[10] = system: false cleavers; experiment: Test Example 4: herbicidal effect by soil treatment (Table 19, symbol Q); assay type: in vivo, false cleavers (Galium spurium); details: amount of applied herbicide 320 g/ha
In short: as §1

[11] = system: southern crabgrass; experiment: Test Example 5: herbicidal effect by foliage application, plastic box (Table 20, symbol F); assay type: in vivo, southern crabgrass (Digitaria ciliaris); details: foliage application
In short: as §2

[12] = system: barnyard grass; experiment: Test Example 4: herbicidal effect by soil treatment (Table 19, symbol H); assay type: in vivo, barnyard grass (Echinochloa crus-galli); details: amount of applied herbicide 320 g/ha
In short: as §1

[13] = system: Italian ryegrass; experiment: Test Example 5: herbicidal effect by foliage application, plastic box (Table 20, symbol K); assay type: in vivo, Italian ryegrass (Lolium multiflorum); details: foliage application
In short: as §2

[14] = system: chickweed; experiment: Test Example 5: herbicidal effect by foliage application, plastic box (Table 20, symbol P); assay type: in vivo, common chickweed (Stellaria media); details: foliage application, AAH 320 g/ha, evaluated three weeks after application
In short: as §2

[15] = system: redroot pigweed; experiment: Test Example 5: herbicidal effect by foliage application, plastic box (Table 20, symbol N); assay type: in vivo, redroot pigweed (Amaranthus retroflexus); details: foliage application, AAH 320 g/ha, evaluated three weeks after application
In short: as §2

[16] = system: chickweed; experiment: Test Example 4: herbicidal effect by soil treatment (Table 19, symbol P); assay type: in vivo, common chickweed (Stellaria media); details: amount of applied herbicide 320 g/ha
In short: as §1

[17] = system: Italian ryegrass; experiment: Test Example 4: herbicidal effect by soil treatment (Table 19, symbol K); assay type: in vivo, Italian ryegrass (Lolium multiflorum); details: amount of applied herbicide 320 g/ha
In short: as §1

[18] = system: green foxtail; experiment: Test Example 5: herbicidal effect by foliage application, plastic box (Table 20, symbol G); assay type: in vivo, green foxtail (Setaria viridis); details: foliage application
In short: as §2

[19] = system: Chinese sprangletop; experiment: Test Example 3: herbicidal effect by foliage application, Wagner pot (Table 18, symbol D); assay type: in vivo, chinese sprangletop (Leptochloa chinensis); details: amount of applied herbicide 320 g/ha
In short: (§4)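 Plants were sown in alluvial soil held under 0.1–0.5 cm standing water and grown 14 days in a greenhouse at 25–30 °C. An emulsifiable formulation, water-diluted to the set dose, was then sprayed onto the foliage, and effects were scored three weeks later using previously defined criteria.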

[20] = system: velvetleaf; experiment: Test Example 5: herbicidal effect by foliage application, plastic box (Table 20, symbol M); assay type: in vivo, velvetleaf (Abutilon theophrasti); details: foliage application
In short: as §2

[21] = system: Japanese bulrush; experiment: Test Example 1: herbicidal activity, application before weed generation under submerged conditions (Table 16, symbol B); assay type: in vivo, Japanese bulrush (Schoenoplectus juncoides)
In short: as §3

[22] = system: wild oat; experiment: Test Example 5: herbicidal effect by foliage application, plastic box (Table 20, symbol I); assay type: in vivo, wild oat (Avena fatua); details: foliage application
In short: as §2

[23] = system: windgrass; experiment: Test Example 5: herbicidal effect by foliage application, plastic box (Table 20, symbol L); assay type: in vivo, windgrass (Apera spica-venti); details: foliage application
In short: as §2

[24] = system: rice flat sedge; experiment: Test Example 3: herbicidal effect by foliage application, Wagner pot (Table 18, symbol E); assay type: in vivo, rice flat sedge (Cyperus iria); details: amount of applied herbicide 320 g/ha
In short: as §4

[25] = system: barnyard grass; experiment: Test Example 5: herbicidal effect by foliage application, plastic box (Table 20, symbol H); assay type: in vivo, barnyard grass (Echinochloa crus-galli); details: foliage application
In short: as §2

[26] = system: windgrass; experiment: Test Example 4: herbicidal effect by soil treatment (Table 19, symbol L); assay type: in vivo, windgrass (Apera spica-venti); details: amount of applied herbicide 320 g/ha
In short: as §1

[27] = system: lambsquarters; experiment: Test Example 5: herbicidal effect by foliage application, plastic box (Table 20, symbol O); assay type: in vivo, lambsquarters (Chenopodium album); details: foliage application
In short: as §2

[28] = system: barnyard grass; experiment: Test Example 3: herbicidal effect by foliage application, Wagner pot (Table 18, symbol H); assay type: in vivo, barnyard grass (Echinochloa crus-galli); details: amount of applied herbicide 320 g/ha
In short: as §4

[29] = system: redroot pigweed; experiment: Test Example 4: herbicidal effect by soil treatment (Table 19, symbol N); assay type: in vivo, redroot pigweed (Amaranthus retroflexus); details: amount of applied herbicide 320 g/ha
In short: as §1

[30] = system: velvetleaf; experiment: Test Example 4: herbicidal effect by soil treatment (Table 19, symbol M); assay type: in vivo, velvetleaf (Abutilon theophrasti); details: amount of applied herbicide 320 g/ha
In short: as §1

[31] = system: southern crabgrass; experiment: Test Example 4: herbicidal effect by soil treatment (Table 19, symbol F); assay type: in vivo, southern crabgrass (Digitaria ciliaris); details: amount of applied herbicide 320 g/ha
In short: as §1

[32] = AAH 320 g/ha, evaluated three weeks after application
[33] = 320 g/ha, three weeks after application
[34] = amount of applied herbicide 320 g/ha

SMILES: COCCOCOc1c(C)nn(C)c(=O)c1-c1c(-c2ccc(OC(F)F)cc2)sc2ccc(F)cc12 [2-307]
- herbicidal effect on I: wild oat [1]: 0 (Herbicidal rate of 5% or less (almost no effect))
- R: persian speedwell, herbicidal effect (criteria 0-5) [2, 32]: 5 (Herbicidal rate of 90% or more (almost completely withered))
- herbicidal effect on G: green foxtail [3]: 4 (Herbicidal rate of 70% or more and less than 90%)
- herbicidal effect on J: blackgrass [4]: 2 (Herbicidal rate of 20% or more and less than 40%)
- herbicidal effect on R: persian speedwell [5]: 5 (Herbicidal rate of 90% or more (almost completely withered))
- J: blackgrass, herbicidal effect (criteria 0-5) [6, 32]: 4 (Herbicidal rate of 70% or more and less than 90%)
- Herbicidal effect on A: late watergrass (grade 0-5) ([7]; 320 g/ha applied herbicide): 0 (Herbicidal rate of 5% or less (almost no effect))
- Herbicidal effect on C: oval-leafed pondweed (grade 0-5) ([8]; 320 g/ha applied herbicide): 0 (Herbicidal rate of 5% or less (almost no effect))
- herbicidal effect on O: lambsquarters [9]: 5 (Herbicidal rate of 90% or more (almost completely withered))
- herbicidal effect on Q: false cleavers [10]: 0 (Herbicidal rate of 5% or less (almost no effect))
- F: southern crabgrass, herbicidal effect (criteria 0-5) [11, 32]: 2 (Herbicidal rate of 20% or more and less than 40%)
- herbicidal effect on H: barnyard grass [12]: 3 (Herbicidal rate of 40% or more and less than 70%)
- K: Italian ryegrass, herbicidal effect (criteria 0-5) [13, 32]: 5 (Herbicidal rate of 90% or more (almost completely withered))
- P: chickweed, herbicidal effect (criteria 0-5) [14]: 5 (Herbicidal rate of 90% or more (almost completely withered))
- N: redroot pigweed, herbicidal effect (criteria 0-5) [15]: 5 (Herbicidal rate of 90% or more (almost completely withered))
- herbicidal effect on P: chickweed [16]: 3 (Herbicidal rate of 40% or more and less than 70%)
- herbicidal effect on K: Italian ryegrass [17]: 1 (Herbicidal rate of 5% or more and less than 20%)
- G: green foxtail, herbicidal effect (criteria 0-5) [18, 32]: 5 (Herbicidal rate of 90% or more (almost completely withered))
- herbicidal effect on D: Chinese sprangletop [19]: 5 (Herbicidal rate of 90% or more (almost completely withered))
- M: velvetleaf, herbicidal effect (criteria 0-5) [20, 32]: 5 (Herbicidal rate of 90% or more (almost completely withered))
- Herbicidal effect on B: Japanese bulrush (grade 0-5) ([21]; 320 g/ha applied herbicide): 3 (Herbicidal rate of 40% or more and less than 70%)
- I: wild oat, herbicidal effect (criteria 0-5) [22, 32]: 3 (Herbicidal rate of 40% or more and less than 70%)
- L: windgrass, herbicidal effect (criteria 0-5) [23, 32]: 3 (Herbicidal rate of 40% or more and less than 70%)
- herbicidal effect on E: rice flat sedge [24]: 4 (Herbicidal rate of 70% or more and less than 90%)
- H: barnyard grass, herbicidal effect (criteria 0-5) [25, 32]: 5 (Herbicidal rate of 90% or more (almost completely withered))
- herbicidal effect on L: windgrass [26]: 0 (Herbicidal rate of 5% or less (almost no effect))
- O: lambsquarters, herbicidal effect (criteria 0-5) [27, 32]: 5 (Herbicidal rate of 90% or more (almost completely withered))
- herbicidal effect on H: barnyard grass [28]: 5 (Herbicidal rate of 90% or more (almost completely withered))
- herbicidal effect on N: redroot pigweed [29]: 5 (Herbicidal rate of 90% or more (almost completely withered))
- herbicidal effect on M: velvetleaf [30]: 0 (Herbicidal rate of 5% or less (almost no effect))
- herbicidal effect on F: southern crabgrass [31]: 4 (Herbicidal rate of 70% or more and less than 90%)

SMILES: Cc1nn(C)c(=O)c(-c2c(-c3ccc(OC(F)F)cc3)oc3ccc(F)cc23)c1O [9-031]
- I: wild oat, herbicidal effect grade [1]: 0 (Herbicidal rate of 5% or less (almost no effect))
- herbicidal effect on persian speedwell (R) [2, 33]: 5 (Herbicidal rate of 90% or more (almost completely withered))
- G: green foxtail, herbicidal effect grade [3]: 4 (Herbicidal rate of 70% or more and less than 90%)
- J: blackgrass, herbicidal effect grade [4]: 0 (Herbicidal rate of 5% or less (almost no effect))
- R: persian speedwell, herbicidal effect grade [5]: 5 (Herbicidal rate of 90% or more (almost completely withered))
- herbicidal effect on blackgrass (J) [6, 33]: 4 (Herbicidal rate of 70% or more and less than 90%)
- Herbicidal effect, A: late watergrass [7, 34]: 2 (Herbicidal rate of 20% or more and less than 40%)
- Herbicidal effect, C: oval-leafed pondweed [8, 34]: 0 (Herbicidal rate of 5% or less (almost no effect))
- O: lambsquarters, herbicidal effect grade [9]: 3 (Herbicidal rate of 40% or more and less than 70%)
- Q: false cleavers, herbicidal effect grade [10]: 3 (Herbicidal rate of 40% or more and less than 70%)
- herbicidal effect on southern crabgrass (F) [11, 33]: 4 (Herbicidal rate of 70% or more and less than 90%)
- H: barnyard grass, herbicidal effect grade [12]: 4 (Herbicidal rate of 70% or more and less than 90%)
- herbicidal effect on Italian ryegrass (K) [13, 33]: 5 (Herbicidal rate of 90% or more (almost completely withered))
- P: chickweed, herbicidal effect grade [16]: 4 (Herbicidal rate of 70% or more and less than 90%)
- K: Italian ryegrass, herbicidal effect grade [17]: 5 (Herbicidal rate of 90% or more (almost completely withered))
- herbicidal effect on green foxtail (G) [18, 33]: 5 (Herbicidal rate of 90% or more (almost completely withered))
- Herbicidal effect on D (Chinese sprangletop), foliage application [19]: 1 (Herbicidal rate of 5% or more and less than 20%)
- herbicidal effect on velvetleaf (M) [20, 33]: 5 (Herbicidal rate of 90% or more (almost completely withered))
- Herbicidal effect, B: Japanese bulrush [21, 34]: 0 (Herbicidal rate of 5% or less (almost no effect))
- herbicidal effect on wild oat (I) [22, 33]: 4 (Herbicidal rate of 70% or more and less than 90%)
- herbicidal effect on windgrass (L) [23, 33]: 4 (Herbicidal rate of 70% or more and less than 90%)
- Herbicidal effect on E (rice flat sedge), foliage application [24]: 5 (Herbicidal rate of 90% or more (almost completely withered))
- herbicidal effect on barnyard grass (H) [25, 33]: 4 (Herbicidal rate of 70% or more and less than 90%)
- L: windgrass, herbicidal effect grade [26]: 4 (Herbicidal rate of 70% or more and less than 90%)
- herbicidal effect on lambsquarters (O) [27, 33]: 5 (Herbicidal rate of 90% or more (almost completely withered))
- Herbicidal effect on H (barnyard grass), foliage application [28]: 5 (Herbicidal rate of 90% or more (almost completely withered))
- N: redroot pigweed, herbicidal effect grade [29]: 5 (Herbicidal rate of 90% or more (almost completely withered))
- M: velvetleaf, herbicidal effect grade [30]: 2 (Herbicidal rate of 20% or more and less than 40%)
- F: southern crabgrass, herbicidal effect grade [31]: 4 (Herbicidal rate of 70% or more and less than 90%)
